Assay results as given in publication PMC6661766, “Antimicrobial, antioxidant and cytotoxic evaluation of diazenyl chalcones along with insights to mechanism of interaction by molecular docking studies” (BMC Chemistry, 2019).
Values after ≈ are worked out from the molar mass of the structure shown. Values joined by “and” are separate entries in the source; they are usually repeats but may differ in a detail not shown here. Identical values can stand only once.

Legend:
[1] = system: A. fumigatus; experiment: Antimicrobial serial tube dilution, MIC and MFC; assay type: cell-based, Aspergillus fumigatus MTCC 2584; details: Aspergillus fumigatus; for MIC: 168 h, read-out: A. fumigatus MIC; for MFC: read-out: A. fumigatus MFC
Procedure: (§1) The synthesized diazenyl chalcones (C18 to C27) and controls (dyes A and E, and chalcone) were assessed for their antimicrobial activity by estimation of MIC and MBC/MFC values. […] The stock solutions of the test compounds and standard drugs having a concentration of 1000 µg ml^−1 were prepared by dissolving the used compounds in DMSO. The nutrient broth/Sabouraud dextrose broth was used for the serial dilution of the test compounds and referenced drugs for bacterial and fungal cultures, respectively. […] The size of the final inoculum in each test tube was taken as 5 × 10^5 CFU ml^−1. The incubation of the test and standard compounds of varying concentrations was done for 24 h at 37 ± 2 °C (bacterial culture) and for 48 h at 37 ± 2 °C (C. albicans) and for 7 d at 25 ± 2 °C (A. fumigatus). The diazenyl chalcones (C18–C27), were further evaluated for their bactericidal/fungicidal activity by estimation of MBC/MFC values. […] For proper mixing of culture media, the plates were shaken gently followed by incubation at the predefined temperature and time as stated earlier, followed by the visual inspection of the plates for signs of microbial growth.

[2] = system: tested bacterial strains; experiment: Antimicrobial serial tube dilution, ranges over several bacterial strains; assay type: cell-based; details: over tested bacterial strains
Procedure: as §1

[3] = system: A549 human lung cancer cell line; experiment: MTT cytotoxicity assay, A549; assay type: cell-based; details: Homo sapiens, A549; MTT, 48 h
Procedure: (§2) The cell lines employed in the investigation were purchased from the National Centre for Cell Sciences (NCCS), Pune, India. The cell lines were cultured in DMEM fortified with 10% FBS, L-glutamine, sodium bicarbonate, and solution of antibiotics (streptomycin 100 μg ml^−1 + penicillin-100 U ml^−1). The culture of cell lines was stored under 5% CO2 incubation at 37 °C.
(§3) The compounds showing maximum activity (antimicrobial and antioxidant potential) were screened for cytotoxicity against A549 and HEK cell lines using MTT assay. Initially, 96-well microculture plate was seeded with 1 × 10^4 cells in 100 µl/well DMEM/MEM, supplemented with 10% FBS followed by incubation at a temperature of 37 °C for a period of 24 h under 5% CO2 atmosphere. After that, the test compounds and camptothecin were added to the cells to achieve a concentration of 10, 25, 50 and 100 µg. MTT reagent (10 µl) of concentration of 5 mg ml^−1 added to all the wells after the duration of 48 h. The plate was incubated further for 4 h followed by careful removal of supernatant from each well. To dissolve the formazan crystals, 100 µl of DMSO was added, and the ELISA reader was used to check the absorbance at 570 nm wavelength. In order to calculate the IC50 concentration, the following equation, i.e. A = Bx + C, was used. In this case, A = 50, while the values B and C values were obtained from the survival curve plot. This study was carried out in duplicate.

[4] = DPPH scavenging antioxidant assay; details: for log IC50 DPPH: Fig. 1
Procedure: The derivatives (C18–C27) were assessed for their antioxidant potential in the presence of the stable free radical DPPH using ascorbic acid as the standard compound [36, 37]. […] The total volume of 200 µl was used in each well for each concentration of the test and standard drug containing 0.004 µg DPPH. The assay was performed in triplicate at all concentrations of each sample and standard compound. DPPH solutions in methanol at the same concentration without test drugs were used as the control. Each concentration of the sample and standard has a different blank. To minimize evaporation, the plate was covered with the lid and wrapped in aluminium foil and kept in the dark place in order to protect the DPPH radical from degradation by light and left for 30 min. After 30 min of incubation, the plate was kept in ELISA reader to measure the absorbance values at 517 nm. The experiment was performed in triplicate. The antioxidant activity of each sample was then calculated as per cent inhibition of DPPH according to the following equation: %decolourationofDPPH=ControlAbs-SampleAbs×100/ControlAbs

[5] = system: S. aureus; experiment: Antimicrobial serial tube dilution, MIC and MBC; assay type: cell-based, Staphylococcus aureus MTCC 2901; details: Staphylococcus aureus; for MIC: 24 h, read-out: S. aureus MIC; for MBC: read-out: S. aureus MBC
Procedure: as §1

[6] = system: C. albicans; experiment: Antimicrobial serial tube dilution, MIC and MFC; assay type: cell-based, Candida albicans MTCC 227; details: Candida albicans; for MIC: 48 h, read-out: C. albicans MIC; for MFC: read-out: C. albicans MFC
Procedure: as §1

[7] = system: E. coli; experiment: Antimicrobial serial tube dilution, MIC and MBC; assay type: cell-based, Escherichia coli MTCC 1652; details: for MIC / MBC: Escherichia coli; for MIC: 24 h, read-out: E. coli MIC, 24 h at 37 ± 2 °C; for MBC: read-out: E. coli MBC; for E. coli MIC: 24 h at 37 ± 2 °C
Procedure: as §1

[8] = system: B. cereus; experiment: Antimicrobial serial tube dilution, MIC and MBC; assay type: cell-based, Bacillus cereus MTCC 1305; details: Bacillus cereus; for MIC: 24 h, read-out: B. cereus MIC; for MBC: read-out: B. cereus MBC
Procedure: as §1

[9] = system: S. typhi; experiment: Antimicrobial serial tube dilution, MIC and MBC; assay type: cell-based, Salmonella typhi MTCC 3216; details: Salmonella enterica, TYPHI; for MIC: 24 h, read-out: S. typhi MIC; for MBC: read-out: S. typhi MBC
Procedure: as §1

[10] = system: B. subtilis; experiment: Antimicrobial serial tube dilution, MIC and MBC; assay type: cell-based, Bacillus subtilis MTCC 2063; details: Bacillus subtilis; for MIC: 24 h, read-out: B. subtilis MIC; for MBC: read-out: B. subtilis MBC
Procedure: as §1

[11] = system: HEK human embryonic kidney cells; experiment: MTT cytotoxicity assay, HEK; assay type: cell-based; details: 48 h
Procedure: as §2, §3

SMILES	MIC [1] [µg/mL]	MFC [1] [µg/mL]	melting point [°C]	IC50 [3] [µg/mL]	IC50 DPPH [4]	% inhibition of DPPH ([4]; 1.56 µg ml^−1) [%]	% inhibition of DPPH ([4]; 3.12 µg ml^−1) [%]	% inhibition of DPPH ([4]; 6.25 µg ml^−1) [%]	% inhibition of DPPH ([4]; 12.5 µg ml^−1) [%]	% inhibition of DPPH ([4]; 25 µg ml^−1) [%]	% inhibition of DPPH ([4]; 50 µg ml^−1) [%]	% inhibition of DPPH ([4]; 100 µg ml^−1) [%]	MIC [5] [µg/mL]	MBC [5] [µg/mL]	MIC [6] [µg/mL]	MFC [6] [µg/mL]	MIC [7] [µg/mL]	MBC [7] [µg/mL]	MIC [8] [µg/mL]	MBC [8] [µg/mL]	other results
O=C(/C=C\c1cc(Br)ccc1O)c1ccc(N=Nc2ccc([N+](=O)[O-])cc2Cl)c(O)c1 [Compound C-22, (2Z)-3-(5-Bromo-2-hydroxyphenyl)-1-(4-((2-chloro-4-nitrophenyl)diazenyl)-3-hydroxyphenyl) prop-2-en-1-one]	62.5 (≈ 124 µM)	125 (≈ 249 µM)	160 to 162	156.4 ± 1.23 (≈ 311 µM)	> 100 µg/mL	8.25	9.26	10.25	11.79	14.15	16.34	23.27	3.9 (≈ 7.76 µM)	31.2 (≈ 62.2 µM)	31.2 (≈ 62.2 µM)	31.2 (≈ 62.2 µM)	1.95 (≈ 3.88 µM)	7.81 (≈ 15.5 µM)	3.9 (≈ 7.76 µM)	3.9 (≈ 7.76 µM)	MBC range [2]: 3.90 to 7.81 µg/mL; MIC range [2]: 1.95 to 3.90 µg/mL; MIC [9]: 3.9 µg/mL (≈ 7.76 µM); MBC [9]: 7.81 µg/mL (≈ 15.5 µM); MIC [10]: 1.95 µg/mL (≈ 3.88 µM); MBC [10]: 7.81 µg/mL (≈ 15.5 µM); IC50 [11]: 296.4 ± 2.32 µg/mL (≈ 590 µM)
O=Cc1ccc(/C=C\C(=O)c2ccc(N=Nc3c(O)cccc3O)cc2)cc1 [Compound C-23, 4-((1Z)-3-(4-((2,6-Dihydroxyphenyl)diazenyl)phenyl)-3-oxoprop-1-en-1-yl)benzaldehyde]	62.5 (≈ 168 µM)	125 (≈ 336 µM)	182 to 184	171 ± 2.46 (≈ 460 µM)	17.82 µg/mL (≈ 47.9 µM)	19.03	25.53	35.86	50.45	70.53	83.17	95.68	125 (≈ 336 µM)	125 (≈ 336 µM)	125 (≈ 336 µM)	125 (≈ 336 µM)	7.81 to 15.6 (≈ 21 to 41.9 µM)	15.6 (≈ 41.9 µM)	62.5 (≈ 168 µM)	62.5 (≈ 168 µM)	log IC50 DPPH [4]: 1.251; E. coli MIC [7]: 15.62 µg/mL; MIC [9]: 31.2 µg/mL (≈ 83.9 µM); MBC [9]: 62.5 µg/mL (≈ 168 µM); MIC [10]: 62.5 µg/mL (≈ 168 µM); MBC [10]: 62.5 µg/mL (≈ 168 µM); IC50 [11]: 190.1 ± 1.56 µg/mL (≈ 511 µM)
O=C(/C=C\c1ccc(Cl)cc1Cl)c1cccc(N=Nc2cccc(Cl)c2Cl)c1O [Compound C-19, (2Z)-3-(2,4-Dichlorophenyl)-1-(3-((2,3-dichlorophenyl)diazenyl)-2-hydroxyphenyl)prop-2-en-1-one]	125 (≈ 268 µM)	250 (≈ 536 µM)	112 to 114	140.2 ± 1.11 (≈ 301 µM)	> 100 µg/mL	6.64	7.71	9.39	10.87	12.99	15.22	24.49	125 (≈ 268 µM)	125 (≈ 268 µM)	125 (≈ 268 µM)	125 (≈ 268 µM)	500 (≈ 1070 µM)	500 (≈ 1070 µM)	500 (≈ 1070 µM)	500 (≈ 1070 µM)	MIC [9]: 125 µg/mL (≈ 268 µM); MBC [9]: 125 µg/mL (≈ 268 µM); MIC [10]: 15.6 µg/mL (≈ 33.5 µM); MBC [10]: 62.5 µg/mL (≈ 134 µM); IC50 [11]: 221 ± 3.23 µg/mL (≈ 474 µM)
COc1ccccc1/C=C\C(=O)c1ccc(N=Nc2c(O)cccc2O)cc1 [Compound C-27, (2Z)-1-(4-((2,6-Dihydroxyphenyl)diazenyl)phenyl)-3-(2-methoxyphenyl)prop-2-en-1-one]	125 (≈ 334 µM)	125 (≈ 334 µM)	320 to 322	124 ± 2.56 (≈ 330 µM)	7.112 µg/mL and 7.12 µg/mL	26.13	34.18	54.67	82.21	93.45	95.71	96.62	62.5 (≈ 167 µM)	62.5 (≈ 167 µM)	62.5 (≈ 167 µM)	62.5 (≈ 167 µM)	7.81 to 15.6 (≈ 20.9 to 41.7 µM)	15.6 (≈ 41.7 µM)	125 (≈ 334 µM)	125 (≈ 334 µM)	log IC50 DPPH [4]: 0.8520; E. coli MIC [7]: 7.81 µg/mL; MIC [9]: 62.5 µg/mL (≈ 167 µM); MBC [9]: 62.5 µg/mL (≈ 167 µM); MIC [10]: 15.6 µg/mL (≈ 41.7 µM); MBC [10]: 31.2 µg/mL (≈ 83.5 µM); IC50 [11]: 330.6 ± 2.9 µg/mL (≈ 883 µM)
